This note sets out measurements from a melting point compilation (Tetko et al.; mined from patent text by program, amines drawn as free bases though some values may be those of a salt).

As a reminder, the melting point is the temperature of the solid-liquid transition. As to `COc1cc(CCCCC2OC(=O)NC2=O)ccc1OCc1nc(-c2ccccc2)oc1C` (stereo unspecified), the melting point fell in the range of 135 to 136 °C.
In the case of `O=C1C(=O)N(CCCCl)c2ccccc21`, the melting point was in the range of 72 to 76.5 °C.
The figure for `CSCC[C@H]1NC(=O)[C@@H]([C@H](C)c2cccc3ccccc23)NC1=O` is 265 to 268 °C; for `CC(C)c1ccc(-c2ccc(C3N=C(c4ccccc4Cl)CC3C#N)cc2)cc1` (stereo unspecified) it is 127 to 128 °C.
Consider `Cc1nc(O)c([N+](=O)[O-])c(O)n1`, for which the melting point was more than 300 °C.
`O=c1[nH]c2cc(-c3ccncc3)ccc2c(=O)o1` came in with a melting point of 265 to 267 °C.
For `COP(=O)(Cc1nc2cc3c(cc2nc1C(=O)OC(C)(C)C)OC(C)(C)O3)OC`, the melting point lay within 86.3 to 87.9 °C.
The figure for `CCCCCCCCCCOC(=O)c1ccc(O)c(OC)c1` is 40 to 40.5 °C.
The figure for `O=C(Nc1cccc2c1C(=O)c1c-2n[nH]c1-c1ccc(N2CCNCC2)cc1)NN1CCN(CCO)CC1` is 279 °C; for `c1cc(CCCCn2ccnc2)cc(OCc2ccc3oc(-c4cccs4)nc3c2)c1` it is 97 to 98 °C; for `C[C@H](CO)Nc1nc(SCc2cccc(C(F)(F)F)c2F)nc2[nH]c(=O)cnc12` it is 217 to 219 °C.
`O=C(Nc1c(F)cccc1F)c1c(O)ccn2c1nc1ccccc12` registered a melting point of 232 to 235 °C.
In the case of `CN(c1cccc2cc(C(=O)NCC3(SCc4ccccc4)CCC4(CC3)OCCO4)[nH]c12)S(=O)(=O)c1cccs1` it was 211 to 212 °C.
In the case of `CCN1C(=O)NC(Cc2c[nH]c3ccccc23)C1=O` (stereo unspecified) it was 167 to 170 °C; in that of `O=[N+]([O-])c1ccc(NN=C(c2ccccc2)c2ccccc2)c([N+](=O)[O-])c1`, 232 to 234 °C; in that of `CC(C)(C)NCCOp1oc2c(C(C)(C)C)cc(C(C)(C)C)cc2c2cc(C(C)(C)C)cc(C(C)(C)C)c2o1`, 135 to 138 °C.
The figure for `Nc1sc2c(c1C(=O)c1cccc3ccccc13)CCC2` is 255 to 257 °C; for `C=CCn1nnc2cc(F)c(-n3c(=O)cc(C(F)(F)F)n(C)c3=O)cc21` it is 136 to 138 °C; for `NC(=O)n1nc(-c2ccccc2)cc1N` it is 255 °C.
In the case of `CCc1c(C(=O)O)nn(-c2ccc(Cl)cc2Cl)c1-c1ccc(Cl)s1`, the melting point is 207 to 208 °C.
The figure for `O=C(O)CSC(CCc1ccccc1)c1ccc(OCc2ccc3ccccc3n2)cc1` (stereo unspecified) is 117 to 118 °C; for `c1ccc(-c2csc(CN3CCN(c4ccccc4)CC3)n2)cc1` it is 142 to 143 °C.
On to `Cc1ccc(-c2[nH]nc3c2Cc2ccccc2-3)cc1`, for which the melting point fell in the range of 250 to 252 °C.
The molecule `COc1ccc(-c2cccc3c2C2(COc4cc5c(cc42)OCO5)C(=O)N3Cc2ccc(C(F)(F)F)o2)cn1` (stereo unspecified) returned a melting point of 174 to 176 °C.
As for `COc1nc(-n2cc(C(=O)O)c(=O)c3cc(F)c(F)c(Cl)c32)c(F)cc1F`, the melting point lay in the range of 205 to 210 °C.
In the case of `OC(c1ccccc1)(c1ccc(C(F)(F)F)cc1)c1nccn1Cc1ccccc1` (stereo unspecified) it was 167 to 169 °C; in that of `Cc1ccc(Cc2nc3c(cnn3C(CCCc3ccccc3)C(C)O)c(=O)[nH]2)cc1` (stereo unspecified), 133 °C.
`CS(=O)(=O)c1ccc(-n2nc(C(F)(F)F)cc2-c2ccc(-c3cscn3)c(Cl)c2)cc1` registered a melting point of 128 to 130 °C.
`Cc1c(NC(=O)CC(C)(C)C)cc2c(c1C)OC(C)(C)C2c1ccc(C=O)cc1` (stereo unspecified) came in with a melting point of 169 to 170 °C.
In turn, `CCOC(=O)C1=C(C)NC(c2cscn2)=NC1c1ccc(O)cc1` (stereo unspecified) returned a melting point of 213 to 216 °C.
Consider `COc1ccc2[nH]c(S(=O)Cc3cc(N(C)C)c(Cl)cn3)nc2c1` (stereo unspecified), for which the melting point was 155 to 157 °C.
The figure for `COc1ccc(C(O)Cc2ccncc2)c2c1OC1(CCCCC1)CC2` (stereo unspecified) is 123 to 133 °C.
In the case of `COc1ncc(CS(=O)(=O)CC(=O)O)cc1[N+](=O)[O-]` it was 183 to 186 °C.
In the case of `CCC(C)Nc1c([N+](=O)[O-])cc(C)c(C)c1[N+](=O)[O-]` (stereo unspecified) it was 37 to 38.5 °C.
Molecule `O=C1CCc2c1cccc2C(=O)c1ccc(Cl)cc1` came in with a melting point of 146 °C.
In turn, `CCOc1nn(-c2c(Cl)cc(C(F)(F)F)cc2Cl)c(N)c1C(=O)c1cc(C)ccc1C` showed a melting point of 99 to 101 °C.
The molecule `COC(C)COC1C(n2cc(C)c(=O)[nH]c2=O)OC(COCc2ccccc2)(COS(=O)(=O)c2ccc(C)cc2)C1(CCO)OCc1ccccc1` (stereo unspecified) gave a melting point of 90 to 92 °C.
The figure for `CCn1cc(C(=O)O)c(=O)c2cnc(N3CCN(CC(C)O)CC3)nc21` (stereo unspecified) is 214 to 216 °C; for `COc1ccc(-n2c(CC(=O)O)c(C(=O)O)c3cc(Oc4ccc(OC(C)C)cc4)ccc32)cc1` it is 226 °C; for `O=C(CCCC(=O)Oc1cc(O)cc(O)c1)Oc1cc(O)cc(O)c1` it is 205 to 208 °C.
The figure for `COC(=O)C(=CNc1ccc(F)c(F)c1OCC(C)OS(=O)(=O)c1ccc(C)cc1)C(=O)OC` (stereo unspecified) is 89 to 90 °C; for `O=C(O)[C@H](Cc1ccccc1)NC(=S)Cc1ccccc1` it is 63 to 65 °C; for `O=C(O)c1ccn2c1CSC2c1cccnc1` (single isomer, unassigned; (+)) it is 154 °C.
In the case of `ClC(Cl)(Cl)C1Nc2ccccc2CO1` (stereo unspecified) it was 90 to 92 °C; in that of `Cc1cc(C)nc(-c2ncc([N+](=O)[O-])n2C)n1`, 148 to 150 °C.
Molecule `CCOC(=O)C(c1ccc(NC(=O)OC(C)(C)C)cc1)N(C)C(C)C` (stereo unspecified) showed a melting point of 87 to 88 °C.
The figure for `O=C(O)C(=O)Nc1ccc2c(=O)c3c(oc2c1)C(=Cc1ccccc1)CC3` is 253 to 256 °C; for `CC[C@H](C)C(OCc1ccccc1)[C@@H]1[C@H]([N+](=O)[O-])[C@H](c2ccccc2)N(C(=O)CN)[C@]1(C)C(=O)NCCC(=O)O` (stereo partly specified) it is 116 °C.
The figure for `CCC(C)C(NC(=O)OC)C(=O)NC(Cc1ccccc1)C(O)CN(Cc1ccc(-c2cncs2)cc1)NC(=O)OC(C)(C)C` (stereo unspecified) is 163 to 166 °C; for `O=C(O)c1c(Cl)ccc2cc(C(F)(F)F)c(C(F)(F)F)nc12` it is 108 to 111 °C; for `CC(=O)NC(CCCCCCCCCCCCO)(COC(C)=O)COC(C)=O` it is 75 to 76.5 °C.
In the case of `NC(=O)c1cccc(C2OCCO2)c1` it was 92 to 94 °C; in that of `CCCCCCCCCCOc1cnc(-c2ccc(C#CCCCC(C)OC(C)=O)cc2)nc1` (stereo unspecified), 57 to 58 °C; in that of `Cc1ccc(-c2cc3ccccc3[nH]2)cc1`, 213 to 215 °C.
`CCOC(=O)c1cc2ccc(CBr)cc2o1`: the melting point was in the range of 95 to 102 °C.
`O=C1N(Cc2ccccn2)c2ccccc2C12COc1c2ccc2c1OCCO2` (stereo unspecified) displayed a melting point of 205 to 206 °C.
The figure for `Cn1ncc2c1-c1c(Oc3ccc4c(c3)OCO4)sc(C#N)c1CC2` is 132 to 134 °C; for `CC(=O)Nc1ccc(OC2SCC(O)C(O)C2O)cc1` (stereo unspecified) it is 238 °C.
On to `S=c1[nH]c2cccc(OCCN3CCc4ccccc4C3)c2[nH]1`, for which the melting point is 249 to 250 °C.
In the case of `CCCCCS(=O)(=O)NC(=O)CCc1ccc(OCC(=O)N(CC)CC)cc1Oc1ncc(C(F)(F)F)cc1Cl` it was 111 to 113 °C.
In the case of `C=C1CC(C)(COc2cc(=O)oc3ccccc23)OC1=O` (stereo unspecified) it was 161 to 162 °C; in that of `O=c1[nH]c(=O)c2cccnc2[nH]1`, 360 °C.
As to `COc1c(F)c(F)cc2c(=O)c(C(=O)O)cn(C3COC3)c12`, the melting point was in the range of 178 to 179 °C.
The figure for `CC(O)c1cccc(Cl)c1Cl` (stereo unspecified) is 53 °C.
The figure for `CCOC(=O)c1c[nH]c2c(OC)ccc(-c3ccccc3)c2c1=O` is 234 to 237 °C; for `CC(O)CCc1cc(C(C)(C)C)c(O)c(C(C)(C)C)c1` (stereo unspecified) it is 62 to 67 °C.
As to `O=C1C(=O)c2ccc(-c3ccccc3)cc2C2=C1SCC1(CCN(Cc3ccc(F)cc3)CC1)O2`, the melting point was 197 to 198 °C.
Regarding `N#CC(Cl)=C(Cl)SC(Cl)=C(Cl)C#N`, the melting point was found to be 87 °C.
In the case of `CC(=O)Nc1ccc(OCC(F)(F)F)cc1[N+](=O)[O-]` it was 117 to 118 °C; in that of `CN(C)C=C(C#N)C(=O)Nc1ccccc1Cl`, 122 to 123 °C; in that of `CC(C)COc1ccc(C(=O)N/C(=C\c2ccc(C(F)(F)F)cc2)C(=O)NCCO)cc1`, 207 to 210 °C.
In the case of `NS(=O)(=O)c1ccsc1C(=O)OC1COC1` it was 158 to 160 °C; in that of `N#CCc1cccc2c(-c3ccc(Cl)cc3)nccc12`, 132 °C.
For the molecule `O=C(O)COC1c2ccccc2COc2ccc(/C=C/c3ccc4cc(F)c(F)cc4n3)cc21` (stereo unspecified), the melting point fell in the range of 206 to 208 °C.
The figure for `O=c1[nH]c(=O)n(C2CC(OCc3ccccc3)C(CO)O2)cc1C(F)(F)F` (stereo unspecified) is 157 to 158 °C; for `Nc1cc(OCc2ccccc2)ccc1C=C(Br)Br` it is 93 to 94 °C; for `Cc1ccc(S(=O)(=O)n2ccnc2C(O)(c2ccccc2)c2ccccc2Cl)cc1` (stereo unspecified) it is 165 to 167 °C.
`CC(C)c1ccc2c(CCCCN(C)S(=O)(=O)c3ccccc3)cc(C(=O)O)c-2cc1` had a melting point of 153 to 155 °C.
Molecule `CCOC(=O)N1CC(C)C2=NNC(=O)CC2C1` (stereo unspecified) showed a melting point of 101 to 103 °C.
In the case of `O=C(Cc1c(-c2ccccc2)c2cc3c(cc2oc1=O)C=CC3)Nc1ccc(F)cc1C(F)(F)F` it was 217 to 218 °C; in that of `Cc1cc(Oc2ccsc2C(F)(F)F)nc(-c2ccc(C(F)(F)F)cc2)c1`, 52.5 to 55.5 °C; in that of `CCc1nccn1N=Cc1ccccc1`, 67 to 68 °C.
The figure for `Clc1ccc(C2(Cn3ccnc3)OCC(COc3ccc(-c4ccccc4)cc3)O2)c(Cl)c1` (stereo unspecified) is 156 °C.
The figure for `CCN1CCN(C(=O)OC2C3=C(SCCS3)C(=O)N2c2ccc(Cl)cn2)CC1` (stereo unspecified) is 140 °C.
As to `Fc1ccc2c(C3=CCN(CC4COc5ccc6[nH]c(C(F)(F)F)nc6c5O4)CC3)c[nH]c2c1` (stereo unspecified), the melting point lay in the range of 215 to 220 °C.
In turn, `CCCP(=O)(CCC)COS(=O)(=O)c1c(C)cccc1Cl` gave a melting point of 51 to 53 °C.
